Measured values taken from patent US20190367516A1 (Bayer Pharma Aktiengesellschaft, priority 2015, published 2019).
Like-named read-outs stand apart in the source and are kept apart here.

Columns and labels:
human M2 receptor [1] = molecular target: T1, human M2 receptor (Homo sapiens, UniProt P08172); format: cell-based; details: α >1 = positive cooperativity
T1 sequence (P08172 1-466): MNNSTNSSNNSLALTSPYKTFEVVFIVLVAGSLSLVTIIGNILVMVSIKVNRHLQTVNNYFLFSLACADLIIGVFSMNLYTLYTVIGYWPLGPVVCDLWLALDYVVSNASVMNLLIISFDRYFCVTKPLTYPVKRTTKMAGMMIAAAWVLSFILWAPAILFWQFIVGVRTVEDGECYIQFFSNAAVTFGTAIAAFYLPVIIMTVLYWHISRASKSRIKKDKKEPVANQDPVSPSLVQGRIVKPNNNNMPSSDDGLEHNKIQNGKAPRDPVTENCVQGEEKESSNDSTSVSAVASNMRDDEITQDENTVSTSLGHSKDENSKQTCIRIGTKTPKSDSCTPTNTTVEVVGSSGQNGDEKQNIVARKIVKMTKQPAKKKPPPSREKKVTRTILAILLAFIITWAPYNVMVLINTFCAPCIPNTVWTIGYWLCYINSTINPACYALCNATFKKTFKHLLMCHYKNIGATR

human M2 receptor [2] = molecular target: T1, human M2 receptor; details: for Efficiency: boosting of the acetylcholine effect at EC20 acetylcholine concentration; for Emax: read-out: Efficiency, boosting of the acetylcholine effect at EC20 acetylcholine concentration
From the text: Functional M2-GIRK1/4 Activation Test
The binding of orthosteric agonists (endogenous ligand: acetylcholine) to the M2 receptor leads to receptor activation or a change in conformation of the receptor in the manner of a shift in equilibrium in favour of the active receptor conformation.
The agonist-induced change in conformation of the M2 receptor results in a Gαi protein activation. […] Under physiological conditions, the result is then a selective efflux of potassium from the cell along the electrochemical gradient. […] The extent of hyperpolarization can therefore be regarded as a measure of the activation of the M2 receptor.
The test cell used is a recombinant CHO-DUKX cell line which has been stably transfected with cDNA coding for the human M2 receptor and with cDNA coding for both GIRK1/4 subunits (CHO-DUKX-M2-GIRK). The transmembrane potential, or the relative changes in the transmembrane potential as a function of substance addition or M2 activation, is determined by means of a voltage-sensitive dye (FLIPR Membrane Potential Assay Kit Blue, Molecular Devices # R8034) and the measurement of cell fluorescence using a proprietary fluorescence imaging instrument.
Determination of the Allosteric Potency of the Test Substances (EC50 Value)
The sowing medium consisted of MEM alpha medium (supplemented with 5% FCS, 2% Glutamax, no genticin).
For the particular measurement, the medium was removed and the cells were laden with the voltage-sensitive dye for at least 6 min at room temperature (30 μl of loading buffer per 384-well). This was followed, in a first measurement, by the determination of the fluorescence for the resting transmembrane potential for a period of 5 sec. Thereafter, 10 μl in each case of the test substances diluted in loading buffer were added, followed by a second measurement to determine the transmembrane potential for a period of 50 sec. Finally, the cells were admixed with 10 μl of agonist solution (acetylcholine dissolved in loading buffer). Acetylcholine was used at the concentration corresponding to the EC20, which had been determined in a preliminary test. The M2-mediated GIRK1/4 activation or hyperpolarization was then monitored in a third measurement over a period of 60 sec. The EC50 value (degree of allosteric potency of test compound) and the efficiency (measure of the boosting of the acetylcholine effect at an EC20 acetylcholine concentration) were determined with the aid of a 4-parameter logistic function (Hill function).

[3] = shift of acetylcholine dose-response curve (Allosteric EC50 shift)
[4] = Receptor activity EC50, allosteric potency at EC20 acetylcholine, M2-GIRK1/4 reporter cells, in some cases mean of two or more determinations
[5] = shift in the acetylcholine dose-response curve (Allosteric EC50 shift, GraphPad PRISM)
[6] = Receptor activity EC50, M2-GIRK1/4 activation test, acetylcholine at EC20, allosteric potency, in some cases mean values from two or more determinations

CC(NC(=O)c1cn(-c2c(F)cc(F)cc2F)c2nc(N3C[C@@H](O)CC3=O)ccc2c1=O)(C1CC1)C(F)(F)F (single isomer, unassigned) [Example 510]
Cooperativity (alpha factor) (human M2 receptor [1]; [3]): 46
EC50 (human M2 receptor [2]; [4]): 6 nM
Efficiency (human M2 receptor [2]; M2-GIRK1/4 reporter cells): 94.0%

COC(=O)N1CCN(c2ccc3c(=O)c(C(=O)Nc4c(Cl)cccc4Cl)cn(-c4ccc(F)cc4F)c3n2)CC1 [Example 164, Methyl 4-{6-[(2,6-dichlorophenyl)carbamoyl]-8-(2,4-difluorophenyl)-5-oxo-5,8-dihydro-1,8-naphthyridin-2-yl}piperazine-1-carboxylate]
Cooperativity (alpha factor) (human M2 receptor [1]; [5]): 21
EC50 (human M2 receptor [2]; [6]): 31 nM

CC[C@@H](NC(=O)c1cn(-c2c(F)cccc2Cl)c2nc(N3C[C@@H](O)CC3=O)ccc2c1=O)C(F)(F)F [Example 307, 1-(2-Chloro-6-fluorophenyl)-7-[(4S)-4-hydroxy-2-oxopyrrolidin-1-yl]-4-oxo-N-[(2R)-1,1,1-trifluorobutan-2-yl]-1,4-dihydro-1,8-naphthyridine-3-carboxamide]
Cooperativity (alpha factor) (human M2 receptor [1]; [5]): 36
EC50 (human M2 receptor [2]; [6]): 14 nM

CC[C@@H](NC(=O)c1cn(-c2c(F)cccc2F)c2nc(N3CC4CC4(O)C3)ccc2c1=O)C(F)(F)F (single isomer, unassigned) [Example 305]
Cooperativity (alpha factor) (human M2 receptor [1]; [5]): 23
EC50 (human M2 receptor [2]; [6]): 12 nM

CC[C@H](NC(=O)c1cn(-c2ccc(F)cc2F)c2nc(N3CCC(O)C3)ccc2c1=O)C(F)(F)F (single isomer, unassigned) [Example 219]
Cooperativity (alpha factor) (human M2 receptor [1]; [5]): 33
EC50 (human M2 receptor [2]; [6]): 106 nM

CC(C)C(NC(=O)c1cn(-c2c(F)cc(F)cc2F)c2nc(N3C[C@@H](O)[C@H](O)C3)ccc2c1=O)C(F)(F)F (single isomer, unassigned) [Example 554]
Cooperativity (alpha factor) (human M2 receptor [1]; [3]): 54
EC50 (human M2 receptor [2]; [4]): 10 nM
Efficiency (human M2 receptor [2]; M2-GIRK1/4 reporter cells): 94.5%

CC(C)(NC(=O)c1cn(-c2c(F)cc(F)cc2F)c2nc(N3C[C@@H](O)[C@H](O)C3)ccc2c1=O)C(F)F [Example 634, N-(1,1-Difluoro-2-methylpropan-2-yl)-7-[(3R,4R)-3,4-dihydroxypyrrolidin-1-yl]-4-oxo-1-(2,4,6-trifluorophenyl)-1,4-dihydro-1,8-naphthyridine-3-carboxamide]
Cooperativity (alpha factor) (human M2 receptor [1]; [3]): 48
EC50 (human M2 receptor [2]; [4]): 54 nM
Emax (human M2 receptor [2]; M2-GIRK1/4 reporter cells): 100%

CC12CCC(NC(=O)c3cn(-c4ccc(F)cc4F)c4nc(NCC(F)(F)F)ccc4c3=O)(CC1)CC2 [Example 98, 1-(2,4-Difluorophenyl)-N-(4-methylbicyclo[2.2.2]oct-1-yl)-4-oxo-7-[(2,2,2-trifluoroethyl)amino]-1,4-dihydro-1,8-naphthyridine-3-carboxamide]
Cooperativity (alpha factor) (human M2 receptor [1]; [5]): 14
EC50 (human M2 receptor [2]; [6]): 61 nM

CC(C)(C)[C@H](NC(=O)c1cn(-c2c(F)cc(F)cc2F)c2nc(N3C[C@@H](O)CC3=O)ccc2c1=O)C(F)(F)F [Example 504, 7-[(4S)-4-Hydroxy-2-oxopyrrolidin-1-yl]-4-oxo-N-[(2S)-1,1,1-trifluoro-3,3-dimethylbutan-2-yl]-1-(2,4,6-trifluorophenyl)-1,4-dihydro-1,8-naphthyridine-3-carboxamide]
Cooperativity (alpha factor) (human M2 receptor [1]; [3]): 47
EC50 (human M2 receptor [2]; [4]): 4 nM
Emax (human M2 receptor [2]; M2-GIRK1/4 reporter cells): 100%

CC1CCN(c2ccc3c(=O)c(C(=O)N[C@@H](C)C(F)(F)F)cn(-c4c(F)cc(F)cc4Cl)c3n2)C1=O (mixture of isomers) [Example 418, 1-(2-Chloro-4,6-difluorophenyl)-7-[3-methyl-2-oxopyrrolidin-1-yl]-4-oxo-N-[(2S)-1,1,1-trifluoropropan-2-yl]-1,4-dihydro-1,8-naphthyridine-3-carboxamide]
Cooperativity (alpha factor) (human M2 receptor [1]; [3]): 7
EC50 (human M2 receptor [2]; [4]): 17 nM
Emax (human M2 receptor [2]; M2-GIRK1/4 reporter cells): 89%

C[C@@H]1CN(c2ccc3c(=O)c(C(=O)NC(C)(C)C(F)F)cn(-c4c(F)cc(F)cc4F)c3n2)C(=O)N1 [Example 452, N-(1,1-Difluoro-2-methylpropan-2-yl)-7-[(4R)-4-methyl-2-oxoimidazolidin-1-yl]-4-oxo-1-(2,4,6-trifluorophenyl)-1,4-dihydro-1,8-naphthyridine-3-carboxamide]
Cooperativity (alpha factor) (human M2 receptor [1]; [3]): 25
EC50 (human M2 receptor [2]; [4]): 13 nM
Emax (human M2 receptor [2]; M2-GIRK1/4 reporter cells): 100%

CC(C)C(NC(=O)c1cn(-c2c(F)cc(F)cc2F)c2nc(N3C[C@@H](O)CC3=O)ccc2c1=O)C(C)C [Example 475, N-(2,4-Dimethylpentan-3-yl)-7-[(4S)-4-hydroxy-2-oxopyrrolidin-1-yl]-4-oxo-1-(2,4,6-trifluorophenyl)-1,4-dihydro-1,8-naphthyridine-3-carboxamide]
Cooperativity (alpha factor) (human M2 receptor [1]; [3]): 68
EC50 (human M2 receptor [2]; [4]): 2 nM
Emax (human M2 receptor [2]; M2-GIRK1/4 reporter cells): 100%

CCC(NC(=O)c1cn(-c2ccc(F)cc2F)c2nc(NCCF)ccc2c1=O)C(F)(F)F (racemic) [Example 85, rac-1-(2,4-Difluorophenyl)-7-[(2-fluoroethyl)amino]-4-oxo-N-[1,1,1-trifluorobutan-2-yl]-1,4-dihydro-1,8-naphthyridine-3-carboxamide]
Cooperativity (alpha factor) (human M2 receptor [1]; [5]): 26
EC50 (human M2 receptor [2]; [6]): 118 nM

CC[C@@H](NC(=O)c1cn(-c2c(F)cccc2F)c2nc(N3CC4CC4(O)C3)ccc2c1=O)C(F)(F)F (single isomer, unassigned) [Example 306]
Cooperativity (alpha factor) (human M2 receptor [1]; [5]): 21
EC50 (human M2 receptor [2]; [6]): 52 nM

O=C(NC(c1c(F)cccc1F)C(F)(F)F)c1cn(-c2ccc(F)cc2F)c2nc(N3CCC(O)CC3=O)ccc2c1=O (single isomer, unassigned) [Example 255, 1-(2,4-Difluorophenyl)-N-[1-(2,6-difluorophenyl)-2,2,2-trifluoroethyl]-7-[4-hydroxy-2-oxopiperidin-1-yl]-4-oxo-1,4-dihydro-1,8-naphthyridine-3-carboxamide]
Cooperativity (alpha factor) (human M2 receptor [1]; [5]): 31
EC50 (human M2 receptor [2]; [6]): 83 nM

CC[C@@H](NC(=O)c1cn(-c2c(F)cccc2F)c2nc(N3C[C@@H](O)[C@@H](O)C3)ccc2c1=O)C(F)(F)F [Example 648, 1-(2,6-Difluorophenyl)-7-[(3R,4S)-3,4-dihydroxypyrrolidin-1-yl]-4-oxo-N-[(2R)-1,1,1-trifluorobutan-2-yl]-1,4-dihydro-1,8-naphthyridine-3-carboxamide]
Cooperativity (alpha factor) (human M2 receptor [1]; [3]): 49
EC50 (human M2 receptor [2]; [4]): 81 nM
Emax (human M2 receptor [2]; M2-GIRK1/4 reporter cells): 96.5%

CC[C@H](NC(=O)c1cn(-c2ccccc2F)c2nc(N(C)C)ccc2c1=O)C(F)(F)F [Example 203, 7-(Dimethylamino)-1-(2-fluorophenyl)-4-oxo-N-[(2S)-1,1,1-trifluorobutan-2-yl]-1,4-dihydro-1,8-naphthyridine-3-carboxamide]
Cooperativity (alpha factor) (human M2 receptor [1]; [5]): 8
EC50 (human M2 receptor [2]; [6]): 62 nM

O=C(NC12CC3CC(CC(C3)C1)C2)c1cn(-c2ccc(F)cc2F)c2nc(N3CC4C(C3)C4(F)F)ccc2c1=O (centres unmarked) [Example 2, 7-(6,6-Difluoro-3-azabicylco[3.1.0]hex-3-yl)-1-(2,4-difluorophenyl)-4-oxo-N-(tricyclo[3.3.1.1^3,7]dec-1-yl)-1,4-dihydro-1,8-naphthyridine-3-carboxamide]
Cooperativity (alpha factor) (human M2 receptor [1]; [5]): 24
EC50 (human M2 receptor [2]; [6]): 17 nM

CC[C@H](NC(=O)c1cn(-c2c(F)cc(F)cc2Cl)c2nc(N3C[C@@H](O)CC3=O)ccc2c1=O)C(F)(F)F [Example 398, 1-(2-Chloro-4,6-difluorophenyl)-7-[(4S)-4-hydroxy-2-oxopyrrolidin-1-yl]-4-oxo-N-[(2S)-1,1,1-trifluorobutan-2-yl]-1,4-dihydro-1,8-naphthyridine-3-carboxamide]
Cooperativity (alpha factor) (human M2 receptor [1]; [3]): 26
EC50 (human M2 receptor [2]; [4]): 10 nM
Emax (human M2 receptor [2]; M2-GIRK1/4 reporter cells): 100%

O=C(NC12CC3CC(CC(C3)C1)C2)c1cn(-c2ccc(F)cc2F)c2nc(N3CCOC3=O)ccc2c1=O [Example 128, 1-(2,4-Difluorophenyl)-4-oxo-7-(2-oxo-1,3-oxazolidin-3-yl)-N-(tricyclo[3.3.1.1^3,7]dec-1-yl)-1,4-dihydro-1,8-naphthyridine-3-carboxamide]
Cooperativity (alpha factor) (human M2 receptor [1]; [5]): 18
EC50 (human M2 receptor [2]; [6]): 57 nM

O=C(Nc1c(Cl)cccc1Cl)c1cn(-c2ccc(F)cc2F)c2nc(N3C[C@@H](O)[C@H](O)C3)ccc2c1=O [Example 631, N-(2,6-Dichlorophenyl)-1-(2,4-difluorophenyl)-7-[(3R,4R)-3,4-dihydroxypyrrolidin-1-yl]-4-oxo-1,4-dihydro-1,8-naphthyridine-3-carboxamide]
Cooperativity (alpha factor) (human M2 receptor [1]; [3]): 23
EC50 (human M2 receptor [2]; [4]): 49 nM
Emax (human M2 receptor [2]; M2-GIRK1/4 reporter cells): 86%

CC[C@@H](NC(=O)c1cn(-c2c(F)cc(F)cc2F)c2nc(N3CCC(O)C3=O)ccc2c1=O)C(F)(F)F (mixture of isomers) [Example 280, 7-[3-Hydroxy-2-oxopyrrolidin-1-yl]-4-oxo-N-[(2R)-1,1,1-trifluorobutan-2-yl]-1-(2,4,6-trifluorophenyl)-1,4-dihydro-1,8-naphthyridine-3-carboxamide]
Cooperativity (alpha factor) (human M2 receptor [1]; [5]): 24
EC50 (human M2 receptor [2]; [6]): 44 nM

CCC(NC(=O)c1cn(-c2ccc(F)cc2F)c2nc(N3CC[C@H](F)C3)ccc2c1=O)C(F)(F)F (stereo partly drawn) [Example 71, 1-(2,4-Difluorophenyl)-7-[(3S)-3-fluoropyrrolidin-1-yl]-4-oxo-N-[1,1,1-trifluorobutan-2-yl]-1,4-dihydro-1,8-naphthyridine-3-carboxamide]
Cooperativity (alpha factor) (human M2 receptor [1]; [5]): 30
EC50 (human M2 receptor [2]; [6]): 39 nM
